Tests used:
Tick antigen Derf II = target: T1, Tick antigen Derf II (Dermatophagoides farinae, UniProt Q00855); test: Two-dimensional electrophoresis of tick allergen with and without Fe-Pc-COOK; assay type: biochemical; conditions: Derf II sol. with 0.1 or 0.5 w/v % Fe-Pc-COOK (A) vs tick allergen only (B), silver stain
T1 construct: purchased ASAHI BREWERIES, LTD
T1 sequence (Q00855 18-146): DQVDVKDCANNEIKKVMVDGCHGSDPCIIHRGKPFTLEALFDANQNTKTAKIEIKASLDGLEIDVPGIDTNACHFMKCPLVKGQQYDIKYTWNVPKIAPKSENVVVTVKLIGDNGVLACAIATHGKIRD
Text: Tick antigen Derf II (available from ASAHI BREWERIES, LTD.) was chosen between the allergens, and we compared electrophoresis of the tick allergen containing iron phthalocyanine tetracarboxylic acid with that of the allergen only.
Iron phthalocyanine tetracarboxylic acid potassium salt (Fe-Pc-COOK) aqueous solution and Derf II solution, which appropriate concentrations (w/v %) were mentioned in Table 4, were mixed with swelling stock solution containing IPG (Immobilized pH Gradient) buffer (8 mol/L Urea, 2 w/v % CHAPS, 2% IPG Buffer, appropriate amount of Bromophenol blue, and distilled water) to prepare experimental solutions of preparing examples 1-4 in Table 4.
Whereas Derf II solution was mixed with swelling stock solution containing IPG buffer to prepare experimental solutions of comparative preparing examples 1-4 in Table 4.
One-dimensional electrophoresis gel films (Strip) of Strip pH4-7 and Strip pH 3-10.5 were prepared, soaked in each experimental solution containing appropriate amount of silicon oil for preventing dry, and treated for 10 hours. After being pulled up and washed, each Strip was subjected to one-dimensional electrophoresis containing silicon oil for preventing dry for 16 hours. […]

guinea pig skin [1] = test: Sensitization experiment with rays in guinea pig skin (Adjuvant and Strip method); assay type: in vivo, guinea pig (Crj; Hartley); conditions: sensitized with 5% 6-MC
Procedure: The procedures were repeated for 5 days and the guinea pigs were sensitized with rays.
In the comparative group of the medium, the guinea pigs were injected with to sensitize and induced by dimethylsulfoxide. […] As the positive comparative group, the guinea pigs were injected with 5% 6-methylcoumarin (6-MC) to sensitize, and induced by 1% 6-MC.

[2] = system: fibroblasts derived from Chinese hamster lung (CHL/IU cell); test: Experiment on chromosome aberration by using mammalian cells; assay type: cell-based; conditions: positive comparative group, short time
Procedure: The experiment on chromosome aberration was examined as follows. The experiment doses of the test material were determined by the inhibition experiment of increasing cells. As a result of the inhibition experiment of increasing cells, the concentration of test material in 50% inhibition experiment of increasing cells was 5.0 mg/mL or more in −S9mix method treating in a short time. And the concentration thereof was 0.840 mg/mL in +S9mix method treating in a short time.
As the negative comparative, the non-treating group and the comparative group of the medium were prepared, and as the positive comparative, the mitomycin C (0.05 μg/mL)-treating group was prepared.
Under this experiment, colcemid (available from GIBCO/Lot No. 1125546) was added to laboratory dishes for chromosome specimens to the last concentration of 0.2 μg/mL at 2 hours before making specimens so that cell divisions were stopped in the middle of the division period. After 2 hours, the culture solutions in the laboratory dishes were moved into a conical bottom tube. […] Furthermore, the laboratory dishes prepared for the cell increasing rate were fixed and stained in the same method as the inhibition experiment of increasing cells described above, and the cell increasing rate was measured. […]

rats = test: Toxicity experiment by oral injection of solution dissolving the decomposer to rats (for once)
Procedure: They were divided into each group according to their body weights measured before housed by a continuous stratified sampling method. Extra rats caused by the method were excluded from the experiment and euthanized.
Following the medical toxicity test guideline, the amount of injection was determined 2000 mg/kg, technical upper limit of oral injection. A comparative group, which a comparative material of purified water in the Japanese Pharmacopoeia was injected, was also prepared. 10 male rats and 10 female rats were divided into two groups respectively.
Their health conditions and life or death were observed continuously before the injection of the solution, at 5, 15, 30 minutes, 1, 2, and 4 hours after the injection, and once a day as from the following day. They were weighed before the injection of the solution, and at 9:00-12:00 on 1, 3, 7, 10, 14th day after the injection. After all the observations, their organs and tissues in heads, chests and abdomens were researched whether normal or not.

rabbit eye mucosa = test: Irritation experiment on rabbit eye mucosa; assay type: in vivo, rabbit (Japanese White); conditions: for irritation on the rabbit eye mucosa (Kay and Calandra classification): 100 mg powder
Procedure: Male rabbits at the age of 10 weeks (Japanese White, Kb1:JW(SPF)) were prepared for a washed group (n=3) and a non-washed group (n=3). After pre-bred for 7 days, the rabbits were confirmed normality about changes of body weight and health condition. On the preceding day, they were confirmed about normality of eyes macroscopically and no injury of cornea by fluoresceine staining (fluor-paper, Lot No. 3990849 available from Wyeth-Ayerest Laboratories, USA) using slitlamp (type SL-5: available from Kowa Company, Ltd.) to prepare for experiment.
100 mg of iron phthalocyanine tetracarboxylic acid powder, which was screened through a mesh having 300 μm of aperture once, was put into right conjunctiva of each rabbit, and upper and lower eyelids were gently kept closed for about one second. In the washed group, to remove powder, the conjunctiva was washed with 230-330 mL of lukewarm water at 30 seconds after putting to remove the powder. The left conjunctiva of each rabbit wasn't treated in both groups. The cornea, iris and the conjunctiva in both groups were compared with non-treated eye as reference at 1, 24, 48 and 72 hours after putting. […] The observation results were scored following Draize scoring criteria (Appendix 3), and the irritation was evaluated following Kay and Calandra classification (Appendix 4).

guinea pig skin [3] = test: Toxicity experiment with rays in guinea pig (Morikawa et al. method); assay type: in vivo, guinea pig (Crj; Hartley); conditions: 0.03 mL of 0.05% 8-methoxypsoralen, UV, all spread parts
Procedure: In the comparative group of the medium, the clipped backs of the guinea pigs were open spread by 0.03 mL of dimethylsulfoxide.
As the positive comparative group, the clipped backs of the guinea pigs were open spread by 0.03 mL of 0.05% 8-methoxypsoralen. After 30 minutes, they were exposed to ultraviolet rays (about 11.2 Joules/cm^2). The reactions on the skins were evaluated at 24 and 48 hours after exposing to rays.

guinea pig skin [4] = conditions: sensitized with 0.1% DNCB, induced by 0.1% DNCB, 48 hours after inducing

With “Iron phthalocyanine tetracarboxylic acid potassium salt” the “effect on tick allergen spots in two-dimensional electrophoresis gel” value (Tick antigen Derf II) was “Disappearance of the spots between pH 5-6”.
In the case of `Cc1ccc2oc(=O)ccc2c1` [Example 6-MC, 6-methylcoumarin], the erythema score (guinea pig skin [1]; induced by 1% 6-MC and exposed to ultraviolet rays) is reported as 2-4 and the “evaluation of sensitization with rays” value (guinea pig skin [1]; induced by 1% 6-MC, all guinea pigs) is reported as “positive”.
In the case of `CO[C@@]12[C@H](COC(N)=O)C3=C(C(=O)C(C)=C(N)C3=O)N1C[C@@H]1N[C@@H]12` [MMC, mitomycin C], the “appearance frequency of cells whose chromosomes were abnormal structurally” value ([2]; -S9mix method) is reported as 16%.
“iron phthalocyanine tetracarboxylic acid” was tested, and the “death during the experiment” value (rats; 2000 mg/kg oral once, observed 14 days) was “no male and female rat”, the minimum lethal dose (rats; oral once, male and female rats) was at least 2000 mg/kg and the “irritation on the rabbit eye mucosa (Kay and Calandra classification)” value (rabbit eye mucosa; non-washed group) was “moderately irritating”. The “irritation on the rabbit eye mucosa (Kay and Calandra classification)” value (rabbit eye mucosa; washed group (washed 30 seconds after putting)) was “practically nonirritating”, the “time by which reaction of the conjunctiva disappeared” value (rabbit eye mucosa; non-washed group) was at most 10 days and the “time by which reactions of the cornea and the iris disappeared” value (rabbit eye mucosa; non-washed group, after putting) was at most 72 h. The “time by which slight red conjunctiva disappeared” value (rabbit eye mucosa; washed group, after putting) was at most 24 h.
With `CN(C)N=O` [DMN] the “appearance frequency of cells whose chromosomes were abnormal structurally” value ([2]; +S9mix method) was 37.5%.
Work on `COc1c2occc2cc2ccc(=O)oc12` [8-methoxypsoralen] yielded a skin action score (guinea pig skin [3]) of 4.
Molecule `O=[N+]([O-])c1ccc(Cl)c([N+](=O)[O-])c1` [DNCB, 2,4-dinitrochlorobenzene] has a positive rate (guinea pig skin [4]) of 100%.

Source: patent US20090291934A1, “Method for decomposing an allergen” (Shinshu TLO Co., Ltd., priority 2003, published 2009)
